PubChem BioAssay AID1963848 (Molecular Pharmacology Branch, DTP, NCI, 2024)

System: 379773-124-R-J2-PDC spheroid viability
Assay: Anticancer human tumor 379773-124-R-J2-PDC patient-derived endometrial carcinoma cell line growth inhibition [POLQ]
Conditions: spheroids with HUVEC and MSC; for IC50: curve of first compound; for viability, T/C: stronger effect = lower value
Method in brief: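 Growth inhibition in 3D: complex spheroids (tumor PDC, HUVEC, MSC) treated with POLQ inhibitor combinations; where Cmax unknown, highest tested concentration 10 microM, except SN-38 at 1 microM.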

[1] = second compound 0.0316 µM, first compound 0.0316 µM
[2] = second compound 0.0316 µM, first compound 0.1 µM
[3] = second compound 0.1 µM, first compound 0.0316 µM
[4] = second compound 0.1 µM, first compound 0.1 µM
[5] = second compound 0.316 µM, first compound 0.0316 µM
[6] = second compound 0.316 µM, first compound 0.1 µM
[7] = second compound 1 µM, first compound 0.0316 µM
[8] = second compound 1 µM, first compound 0.1 µM
[9] = second compound 3.16 µM, first compound 0.0316 µM
[10] = second compound 3.16 µM, first compound 0.1 µM
[11] = second compound 10 µM, first compound 0.0316 µM
[12] = second compound 10 µM, first compound 0.1 µM
[13] = second compound 0.0316 µM, first compound 0.316 µM
[14] = second compound 0.0316 µM, first compound 1 µM
[15] = second compound 0.0316 µM, first compound 3.16 µM
[16] = second compound 0.0316 µM, first compound 10 µM
[17] = second compound 0.1 µM, first compound 0.316 µM
[18] = second compound 0.1 µM, first compound 1 µM
[19] = second compound 0.1 µM, first compound 3.16 µM
[20] = second compound 0.1 µM, first compound 10 µM
[21] = second compound 0.316 µM, first compound 0.316 µM
[22] = second compound 0.316 µM, first compound 1 µM
[23] = second compound 0.316 µM, first compound 3.16 µM
[24] = second compound 0.316 µM, first compound 10 µM
[25] = second compound 1 µM, first compound 0.316 µM
[26] = second compound 1 µM, first compound 1 µM
[27] = second compound 1 µM, first compound 3.16 µM
[28] = second compound 1 µM, first compound 10 µM
[29] = second compound 3.16 µM, first compound 0.316 µM
[30] = second compound 3.16 µM, first compound 1 µM
[31] = second compound 3.16 µM, first compound 3.16 µM
[32] = second compound 3.16 µM, first compound 10 µM
[33] = second compound 10 µM, first compound 0.316 µM
[34] = second compound 10 µM, first compound 1 µM
[35] = second compound 10 µM, first compound 3.16 µM
[36] = second compound 10 µM, first compound 10 µM
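Note: spheroids exposed to drugs for seven days before readout.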
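Throughout, for viability, T/C: percent viability relative to DMSO vehicle control taken as 100%.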

Cn1ncnc1[C@H]1c2n[nH]c(=O)c3cc(F)cc(c23)N[C@@H]1c1ccc(F)cc1 + Nc1ccc(C#CCN(C(=O)Cc2ncc(C(F)(F)F)cc2C(F)(F)F)c2ccc(F)cc2)nn1
IC50 (second compound 0.0316 µM): > 100 nM | IC50 (second compound 0.1 µM): > 100 nM | IC50 (second compound 0.316 µM): > 100 nM | IC50 (second compound 1 µM): > 100 nM | IC50 (second compound 3.16 µM): > 100 nM | IC50 (second compound 10 µM): > 100 nM | viability, T/C (second compound 0.0316 µM, first compound 0.000316 µM): 103% | viability, T/C (second compound 0.0316 µM, first compound 0.001 µM): 86.2% | viability, T/C (second compound 0.0316 µM, first compound 0.00316 µM): 94% | viability, T/C (second compound 0.0316 µM, first compound 0.01 µM): 85.8% | viability, T/C [1]: 68.6% | viability, T/C [2]: 53.7% | viability, T/C (second compound 0.1 µM, first compound 0.000316 µM): 89.8% | viability, T/C (second compound 0.1 µM, first compound 0.001 µM): 94.6% | viability, T/C (second compound 0.1 µM, first compound 0.00316 µM): 99.3% | viability, T/C (second compound 0.1 µM, first compound 0.01 µM): 91.9% | viability, T/C [3]: 79.1% | viability, T/C [4]: 55.8% | viability, T/C (second compound 0.316 µM, first compound 0.000316 µM): 100% | viability, T/C (second compound 0.316 µM, first compound 0.001 µM): 102% | viability, T/C (second compound 0.316 µM, first compound 0.00316 µM): 93.6% | viability, T/C (second compound 0.316 µM, first compound 0.01 µM): 86.3% | viability, T/C [5]: 72.5% | viability, T/C [6]: 64.2% | viability, T/C (second compound 1 µM, first compound 0.000316 µM): 97.7% | viability, T/C (second compound 1 µM, first compound 0.001 µM): 90.1% | viability, T/C (second compound 1 µM, first compound 0.00316 µM): 99.1% | viability, T/C (second compound 1 µM, first compound 0.01 µM): 86.6% | viability, T/C [7]: 80.4% | viability, T/C [8]: 55.1% | viability, T/C (second compound 3.16 µM, first compound 0.000316 µM): 113% | viability, T/C (second compound 3.16 µM, first compound 0.001 µM): 91.5% | viability, T/C (second compound 3.16 µM, first compound 0.00316 µM): 98% | viability, T/C (second compound 3.16 µM, first compound 0.01 µM): 102% | viability, T/C [9]: 67.5% | viability, T/C [10]: 58.2% | viability, T/C (second compound 10 µM, first compound 0.000316 µM): 87.7% | viability, T/C (second compound 10 µM, first compound 0.001 µM): 90.6% | viability, T/C (second compound 10 µM, first compound 0.00316 µM): 86.3% | viability, T/C (second compound 10 µM, first compound 0.01 µM): 84% | viability, T/C [11]: 78.8% | viability, T/C [12]: 56.5%

Nc1ccn(C2OC(CO)C(O)C2(F)F)c(=O)n1 (stereo unspecified) + Nc1ccc(C#CCN(C(=O)Cc2ncc(C(F)(F)F)cc2C(F)(F)F)c2ccc(F)cc2)nn1
IC50 (second compound 0.0316 µM): < 31.6 nM | IC50 (second compound 0.1 µM): < 31.6 nM | IC50 (second compound 0.316 µM): < 31.6 nM | IC50 (second compound 1 µM): < 31.6 nM | IC50 (second compound 3.16 µM): 42 nM | IC50 (second compound 10 µM): 71.9 nM | viability, T/C [1]: 15.1% | viability, T/C [2]: 10.6% | viability, T/C [13]: 11.7% | viability, T/C [14]: 13.6% | viability, T/C [15]: 12.6% | viability, T/C [16]: 9.91% | viability, T/C [3]: 19.5% | viability, T/C [4]: 11.3% | viability, T/C [17]: 11.3% | viability, T/C [18]: 11.7% | viability, T/C [19]: 12.6% | viability, T/C [20]: 11.1% | viability, T/C [5]: 24% | viability, T/C [6]: 12.2% | viability, T/C [21]: 10.3% | viability, T/C [22]: 13.1% | viability, T/C [23]: 12% | viability, T/C [24]: 12% | viability, T/C [7]: 36.3% | viability, T/C [8]: 11.9% | viability, T/C [25]: 10.3% | viability, T/C [26]: 9.8% | viability, T/C [27]: 10.8% | viability, T/C [28]: 12.4% | viability, T/C [9]: 61.2% | viability, T/C [10]: 15.9% | viability, T/C [29]: 10.5% | viability, T/C [30]: 10.6% | viability, T/C [31]: 9.92% | viability, T/C [32]: 10.9% | viability, T/C [11]: 96.1% | viability, T/C [12]: 31.3% | viability, T/C [33]: 12.7% | viability, T/C [34]: 9.85% | viability, T/C [35]: 10.6% | viability, T/C [36]: 9.44%

C#Cc1c(F)ccc2cc(O)cc(-c3ncc4c(N5CC6CCC(C5)N6)nc(OCC56CCCN5CC(F)C6)nc4c3F)c12 (stereo unspecified) + Cc1cccc(N(C)C(=O)C2C(O)CCN2c2nc(C)cc(C(F)(F)F)c2C#N)c1
IC50 (second compound 0.0316 µM): > 10000 nM | IC50 (second compound 0.1 µM): > 10000 nM | IC50 (second compound 0.316 µM): > 10000 nM | IC50 (second compound 1 µM): > 10000 nM | IC50 (second compound 3.16 µM): > 10000 nM | IC50 (second compound 10 µM): > 10000 nM | viability, T/C [1]: 81.5% | viability, T/C [2]: 89.3% | viability, T/C [13]: 84% | viability, T/C [14]: 74.6% | viability, T/C [15]: 84% | viability, T/C [16]: 82% | viability, T/C [3]: 93.8% | viability, T/C [4]: 68.7% | viability, T/C [17]: 85.8% | viability, T/C [18]: 75.2% | viability, T/C [19]: 84.8% | viability, T/C [20]: 93% | viability, T/C [5]: 90.8% | viability, T/C [6]: 93.4% | viability, T/C [21]: 77.9% | viability, T/C [22]: 86.5% | viability, T/C [23]: 95.5% | viability, T/C [24]: 88.4% | viability, T/C [7]: 80% | viability, T/C [8]: 78.9% | viability, T/C [25]: 73.2% | viability, T/C [26]: 82.2% | viability, T/C [27]: 95.9% | viability, T/C [28]: 90.6% | viability, T/C [9]: 78.9% | viability, T/C [10]: 87.3% | viability, T/C [29]: 85.2% | viability, T/C [30]: 80% | viability, T/C [31]: 86.2% | viability, T/C [32]: 79.4% | viability, T/C [11]: 84.9% | viability, T/C [12]: 79.7% | viability, T/C [33]: 74.2% | viability, T/C [34]: 78.4% | viability, T/C [35]: 88.9% | viability, T/C [36]: 93.8%
